Experiments:
K. pneumoniae ST258 [1] = assay: Potentiation of additional antibiotics (COMPAN1F plates), MIC; type: cell-based, Klebsiella pneumoniae
Protocol: (§1) Minimal inhibitory concentrations (MICs) of peptidomimetics, antibiotics and their combinations were determined by broth microdilution according to the Clinical Laboratory Standards Institute performance standards (Clinical and Laboratory Standards Institute, [2013]). […] Since rifampicin and azithromycin mainly are used to treat infections with Gram-positive pathogens only CLSI clinical breakpoints were available for such bacteria. […] Potentiation of additional antibiotics by peptidomimetics was determined by using commercial 96-well plates containing varied concentrations of standard antibiotics (COMPAN1F; Trek Diagnostic Systems Inc.). The peptidomimetics were added immediately prior to inoculation with pathogen, and then MICs were determined as above. The MICs of peptidomimetic/antibiotic combinations were determined according to the method above, and the concentration ratios were selected based upon checkerboard results with 2:1 and 1:4 ratio of peptidomimetic with rifampicin or azithromycin, respectively. Minimal bactericidal concentrations (MBCs) were determined by using growth-curve assay plates. MIC plates were prepared as above, and then the plates were incubated at 37°C with continuous shaking. Growth was recorded at 10 min intervals as optical density (OD) at 600 nm during 24 h. At 24 h, for wells without growth, a sample was diluted 10-fold in sterile saline (0.9% sodium chloride) and plated onto MHA, following CLSI guidelines (Clinical and Laboratory Standards Institute, [1999]).

[2] = system: E. coli clinical isolates and reference strains; assay: MIC of fixed-ratio peptidomimetic 1-antibiotic combinations in clinical isolates and reference strains; type: cell-based, Escherichia coli; conditions: in combination with 0.5–1 μM peptidomimetic 1
From the text: (§2) Bacterial strains used in this study comprise MDR clinical isolates of E. coli ST131 (Cerquetti et al., [2010]) and K. pneumoniae ST258 (Jana et al., [2017]), and American type culture collection (ATCC) strains: ATCC 25922 (E. coli), ATCC 13883 (K. pneumoniae), and ATCC 27853 (P. aeruginosa). Additional clinical isolates of E. coli, K. pneumoniae, and P. aeruginosa resistant to β-lactams (including carbapenems and cephalosporins) were provided by Laurent Poirel, Université de Fribourg, Switzerland. The following growth media was routinely used for bacterial culturing: Luria-Burtani (LB), cation-adjusted Mueller-Hinton agar (MHA) and broth (MHB II). All assays were performed in cation-adjusted MHA or MHB II. Antibiotics were purchased from Sigma-Aldrich and the peptidomimetic collection (Table S1) was curated and provided by Henrik Franzyk. […]
(§3) Minimal inhibitory concentrations (MICs) of peptidomimetics, antibiotics and their combinations were determined by broth microdilution according to the Clinical Laboratory Standards Institute performance standards (Clinical and Laboratory Standards Institute, [2013]). […] Potentiation of additional antibiotics by peptidomimetics was determined by using commercial 96-well plates containing varied concentrations of standard antibiotics (COMPAN1F; Trek Diagnostic Systems Inc.). The peptidomimetics were added immediately prior to inoculation with pathogen, and then MICs were determined as above. The MICs of peptidomimetic/antibiotic combinations were determined according to the method above, and the concentration ratios were selected based upon checkerboard results with 2:1 and 1:4 ratio of peptidomimetic with rifampicin or azithromycin, respectively. Minimal bactericidal concentrations (MBCs) were determined by using growth-curve assay plates. […] Growth was recorded at 10 min intervals as optical density (OD) at 600 nm during 24 h. […]

[3] = system: P. aeruginosa clinical isolates and reference strains; assay: as above; type: cell-based, Pseudomonas aeruginosa; conditions: with 1–8 μM of 1
From the text: as §2, §3

E. coli ST131 [4] = assay: Potentiation of additional antibiotics (COMPAN1F plates), MIC; type: cell-based, Escherichia coli
Protocol: as §1

E. coli ST131 [5] = conditions: E. coli ST131; growth-curve assay
Protocol: as §1

P. aeruginosa ATTC 27853 = conditions: P. aeruginosa ATTC 27853; growth-curve assay
Protocol: as §1

K. pneumoniae ST258 [6] = conditions: K. pneumoniae ST258; growth-curve assay
Protocol: as §1

E. coli ST131 [7] = conditions: checkerboard
Protocol: (§4) The potential synergistic effects in peptidomimetic-antibiotic combinations were assessed by using a two-dimensional checkerboard assay (Garcia, [2010]). Briefly, twofold dilutions of peptide and antibiotic were prepared in MBH II media along the X- and Y-axis, respectively, in 96-well plates. The inoculum was added to the plates, and subsequently these were incubated for 18–20 h. All steps for inoculum preparation and broth microdilution were in accordance with the CLSI guidelines (Clinical and Laboratory Standards Institute, [2013]). The fractional inhibitory concentration index (FICI) was calculated as [MICA(A+B)/MICA(alone)] + [MICB(A+B)/MICB(alone)], where MICA(A+B) represents the MIC of antibiotic (A) in combination with peptidomimetic (B), while MICB(A+B) represents the MIC of peptidomimetic (B) in combination with antibiotic (A). MICA(alone) and MICB(alone) represent the MIC of each compound individually. FICI values of ≤0.5 were interpreted as synergy.

P. aeruginosa ATCC 27853 = conditions: P. aeruginosa ATCC 27853; checkerboard
Protocol: as §4

K. pneumoniae ST258 [8] = conditions: checkerboard
Protocol: as §4

MIC of antibiotic in presence of peptidomimetic 1 (K. pneumoniae ST258 [1]; + 1 μM peptidomimetic 1): ≤1 µg/mL
MIC of antibiotic in presence of peptidomimetic 1 (K. pneumoniae ST258 [1]; + 1 μM peptidomimetic 1, listed as rifampicin): below 1 μg/mL
MIC of antibiotic in presence of peptidomimetic 15 (K. pneumoniae ST258 [1]; + 1 μM peptidomimetic 15): ≤1 µg/mL
MIC of antibiotic in presence of peptidomimetic 15 (K. pneumoniae ST258 [1]; + 1 μM peptidomimetic 15, listed as rifampicin): below 1 μg/mL
MIC of antibiotic in presence of peptidomimetic 26 (K. pneumoniae ST258 [1]; + 1 μM peptidomimetic 26): ≤1 µg/mL
MIC of antibiotic in presence of peptidomimetic 26 (K. pneumoniae ST258 [1]; + 1 μM peptidomimetic 26, listed as rifampicin): below 1 μg/mL
MIC (K. pneumoniae ST258 [1]; Klebsiella pneumoniae, no peptidomimetic, read-out: MIC of antibiotic alone): > 2 µg/mL
MIC of antibiotic alone (K. pneumoniae ST258 [1]; no peptidomimetic): >2 µg/mL
MIC of antibiotic in combination, P. aeruginosa isolates (typical) [3]: 0.5 µg/mL
MIC of antibiotic in presence of peptidomimetic 26 (E. coli ST131 [4]; + 0.25 μM peptidomimetic 26): ≤1 µg/mL
MIC of antibiotic in presence of peptidomimetic 26 (E. coli ST131 [4]; + 0.25 μM peptidomimetic 26, listed as rifampicin): below 1 μg/mL
MIC of antibiotic in presence of peptidomimetic 1 (E. coli ST131 [4]; + 0.5 μM peptidomimetic 1): ≤1 µg/mL
MIC of antibiotic in presence of peptidomimetic 1 (E. coli ST131 [4]; + 0.5 μM peptidomimetic 1, listed as rifampicin): below 1 μg/mL
MIC of antibiotic in presence of peptidomimetic 15 (E. coli ST131 [4]; + 0.5 μM peptidomimetic 15): ≤1 µg/mL
MIC of antibiotic in presence of peptidomimetic 15 (E. coli ST131 [4]; + 0.5 μM peptidomimetic 15, listed as rifampicin): below 1 μg/mL
MIC (E. coli ST131 [4]; Escherichia coli, no peptidomimetic, read-out: MIC of antibiotic alone): > 2 µg/mL
MIC of antibiotic alone (E. coli ST131 [4]; no peptidomimetic): >2 µg/mL
MIC (antibiotic alone) (E. coli ST131 [5]): >4 µg/mL
MIC (antibiotic alone) (P. aeruginosa ATTC 27853): >64 µg/mL
MIC (antibiotic alone) (K. pneumoniae ST258 [6]): >16 µg/mL
Antibiotic MIC alone (E. coli ST131 [7]): 4 µg/mL
Antibiotic MIC alone (P. aeruginosa ATCC 27853): 32 µg/mL
Antibiotic MIC alone (K. pneumoniae ST258 [8]): 16 µg/mL
SMILES: CO[C@H]1/C=C/O[C@@]2(C)Oc3c(C)c(O)c4c(O)c(c(/C=N/N5CCN(C)CC5)c(O)c4c3C2=O)NC(=O)/C(C)=C\C=C\[C@H](C)[C@H](O)[C@@H](C)[C@@H](O)[C@@H](C)[C@H](OC(C)=O)[C@@H]1C [Rifampicin, rifampicin]
Antibiotic concentration to which most E. coli isolates proved susceptible in combination [2]: 0.25 to 0.5 µg/mL
MBC (antibiotic alone) (E. coli ST131 [5]): >4 µg/mL
MBC (antibiotic alone) (P. aeruginosa ATTC 27853): >64 µg/mL
MBC (antibiotic alone) (K. pneumoniae ST258 [6]): >16 µg/mL
